The source of these data is patent US20080014133A1, “Extraction Of Radionuclides By Crown Ether-Containing Extractants” (priority 2004, published 2008).

Format in all cases: physicochemical
A short description of data set [1]: Extraction of strontium in a dynamic countercurrent mode (7.1). The text has this:
A starting aqueous solution whose composition and concentration of the components are given in Table 3 for a solution No.1 was contacted with the extractant according to the invention containing 0.05 mole/l of DCH18C6 in a solvent containing 20% by volume of synthanol and 80% by volume of Fluoroheptanol n3 in a continuous countercurrent process on a facility with extractors such as “mixer-settler” devices with impulse agitation and phase transportation. The extraction included eight steps of extraction, two washing steps, eight re-extraction steps and two steps of regeneration of the reused extractant.
When running the facility, radiometric monitoring devices were used to control the concentration of strontium in the refined products, re-extracts and reclaims, as well as the concentration of the crown ethers in the extracted products.

Data set [2] is described as follows: Distribution ratio of strontium extracted in organic solutions of crown ethers (Table 1). The conditions noted are these: crown ether 0.1 mole/l in Fluoroheptanol n3; Sr and Cs 1 g/l, nitric acid about 3.0 mol/l. The procedure: (§1) Study was carried out for determining the distribution ratios of radionuclides, for example, strontium or cesium to be extracted by the extractants according to the invention containing various crown ethers as a complexing agent: bis(tert-butylbenzo)-18-crown-6 (subsequently referred to as DTBDB18C6), di-isooctylbenzo-18-crown-6 (subsequently referred to as DIODB18C6), bis(tert-butylcyclohexane-18-crown-6 (subsequently referred to as DTBDCH18C6), di-isooxyldicyclohexane-18-crown-6 (subsequently referred to as DIODCH18C6), bicyclohexane-18-crown-6 (subsequently referred to as DCH18C6) or dibenzo-21-crown-7 (subsequently referred to as DB21C7), in an organic solvent according to the invention: polyfluorinated telomeric alcohol 1,1,7-trihydrododecafluoroheptanol-1 (subsequently referred to as fluoroheptanol n3).
(§2) For comparison, the distribution ratios of strontium and cesium were determined using extractants containing similar crown ethers in another organic solvent (decane).
(§3) Taken for the tests were experimental aqueous nitrate solutions containing strontium and cesium in a concentration of 1 g/l with a content of nitric acid of about 3.0 mol/l.

Data set [3] can be described thus: Extraction of cesium under dynamic conditions (7.2). From the text:
(§4) The scheme of the process and the conditions of extraction of cesium by the method according to the invention are similar to those described above in 7.1, but the organic phase for extraction of cesium includes solutions DB21C7 in a concentration of about 0.05 mol/l in an organic solvent containing synthanol in an amount of 5% by volume and Fluoroheptanol n3 in an amount of about 95% by volume.
(§5) During the operation of the experimental facility radiometric monitoring devices were used to control the concentration of strontium in the refined products, re-extracts and reclaims, as well as the concentration of the crown ethers in the extracted products. The technological characteristics of the process and solubility of the crown ether (averaged values of several experiments) are given in Table 16.

Data set [4] in a line: Concentration of crown ether in extracted products, dynamic cesium extraction (7.2).
Description: as §4, §5

Data set [5] in a line: Influence of nitric acid concentration on cesium extraction from solution No.1. Particulars: for Distribution ratios of cesium: solution No.1. From the text: The dependence of extraction of cesium by organic solutions DTBDB18C6 in fluoropentanol n3 and DB21C7 in Fluoroheptanol n3 at a concentration of nitric acid in a starting solution was studied. Solution No.1 whose composition is listed in Table 2 was used as a starting solution.

Data set [6] in a line: Behaviour of crown ether in decane extraction system (Table 1 remarks). The conditions noted are these: crown ether 0.1 mole/l in Decane. The procedure: as §1, §2, §3

On to `C1CCC2OCCOCCOC3CCCCC3OCCOCCOC2C1` (stereo not drawn) [DCH18C6, bicyclohexane-18-crown-6], for which the “Contents of strontium in the extracted products, in percent of the feedstock” value is given as 99.55% of the feedstock in data set [1] (Re-extract); <0.1% of the feedstock in data set [1] (Reclaim); 0.35% of the feedstock in data set [1] (Refined product, 0.05 mol/l DCH18C6, Synthanol 20% / Fluoroheptanol n3 80%, solution No.1). Further, the Average concentrating factor entry in data set [1] (dynamic mode 7.1) is recorded as “about 1.7 times”. In addition, the “Efficiency of the extraction of strontium” value in data set [1] (dynamic mode 7.1) is listed as “exceeds 99%”. Further, the “Distribution ratio Strontium” value in data set [2] worked out at 1.6.

For `c1ccc2c(c1)OCCOCCOCCOc1ccccc1OCCOCCO2` [DB21C7, dibenzo-21-crown-7], the “Content of cesium in the extracted products in percent of the feedstock” value in data set [3] (Re-extract) is given as 94.5% of the feedstock; in data set [3] (Reclaim), 4.15% of the feedstock; in data set [3] (Refined product, 0.05 mol/l DB21C7, Synthanol 5% / Fluoroheptanol n3 95%, solution No.1), 1.35% of the feedstock. For the same compound, the “Cesium yield in a saltless product” value in data set [3] (dynamic conditions 7.2) is listed as “about 95%”. The compound also registered an Extraction of cesium in data set [3] (dynamic conditions 7.2) greater than 98%. Moreover, the results for the “Concentration of the crown ether in the extracted products” value in data set [4] (Re-extract), in data set [4] (Reclaim) and in data set [4] (Refined product) were 53 Mg/l, 18 Mg/l and 27 Mg/l, respectively. Further, in data set [5], the “Concentration of nitric acid at the maximum of cesium extraction” value is roughly 3.0 mol/l. Further, the “Distribution ratios of cesium” value worked out at 0.25 in data set [5] (nitric acid 0 mol/l, Fluoroheptanol n3); 1.0 in data set [5] (nitric acid 0.1 mol/l); 3.2 in data set [5] (nitric acid 0.5 mol/l); 7.8 in data set [5] (nitric acid 1.0 mol/l); 10.2 in data set [5] (nitric acid 2.0 mol/l); 12.2 in data set [5] (nitric acid 3.0 mol/l). For the same compound, the “Distribution ratios of cesium” value in data set [5] (nitric acid 4.0 mol/l) was determined as 11.4; in data set [5] (nitric acid 5.0 mol/l), 10.0; in data set [5] (nitric acid 6.0 mol/l), 8.0; in data set [5] (nitric acid 7.0 mol/l), 6.2; in data set [5] (nitric acid 8.0 mol/l), 5.0. Also, the Remarks entry in data set [6] is recorded as “Is insoluble”.
